Laboratory results published in PMC8157947, “Peptidic boronic acids are potent cell-permeable inhibitors of the malaria parasite egress serine protease SUB1” (Proceedings of the National Academy of Sciences of the …, 2021).

Tested on: PfSUB1-mediated proteolytic processing of SERA5
Experiment: Western blot of SERA5 processing after washout
Assay type: cell-based, Plasmodium falciparum
Conditions: 4 h pretreatment then washout
Excerpt: To seek unambiguous confirmation that PfSUB1 is the intracellular target of compound 3j, we examined the effects of the compound on the PfSUB1-mediated proteolytic processing of the established endogenous PfSUB1 substrate SERA5, an abundant parasite PV protein that only becomes accessible to cleavage upon discharge of PfSUB1 into the PV in the minutes leading up to egress and is then released in a processed form into culture supernatants ([6], [11], [12]). […] It was concluded that compound 3j prevents egress and parasite proliferation through direct inhibition of intracellular PfSUB1.
Short-term egress, invasion, and washout assays were performed essentially as described previously ([27], [28], [42]). […] Clarified culture supernatants were assessed for extent of hemoglobin release (a measure of schizont rupture) by absorption spectroscopy at 415 nm as described previously ([28]) or analyzed by Western blot using antibodies against SERA5 ([7], [11]). To quantify generation of new rings, samples of the cultures were fixed with 4% paraformaldehyde/0.02% glutaraldehyde and stained with SYBR Green I (Life Technologies) and then analyzed by flow cytometry on a BD FACSVerse using BD FACSuite software. Data were analyzed using FlowJo software. All cultures were also routinely analyzed by microscopic examination of Giemsa-stained thin films to visually assess parasite morphology.

CC(=O)NC(C(=O)NC(C(=O)NCC(=O)NC(C)B(O)O)C(C)C)C1CCCC1 (stereo not shown) [3j]
SERA5 proteolytic processing: prevented proteolytic processing and release of SERA5
